Measurements as given in ChEMBL document CHEMBL3632469, “Discovery of dihydroquinazolinone derivatives as potent, selective, and CNS-penetrant M(1) and M(4) muscarinic acetylcholine receptors agonists” (Bioorg Med Chem Lett, 2015).

Key:
[1] = target: Beta-2 adrenergic receptor (Homo sapiens) (UniProt P07550); assay: Antagonist activity at adrenergic beta2 receptor (unknown origin) expressed in CHO cells assessed as calcium mobilization at 3 uM; format: functional, cell-based
[2] = target: 5-hydroxytryptamine receptor 2C (Homo sapiens) (UniProt P28335); assay: Agonist activity at 5-HT2C receptor (unknown origin) expressed in CHO cells assessed as calcium mobilization at 3 uM; format: functional, cell-based
[3] = target: 5-hydroxytryptamine receptor 1F (Homo sapiens) (UniProt P30939); assay: Antagonist activity at 5-HT1F receptor (unknown origin) expressed in CHO cells assessed as calcium mobilization at 3 uM; format: functional, cell-based
[4] = target: Alpha-1B adrenergic receptor (Homo sapiens) (UniProt P35368); assay: Agonist activity at adrenergic a1B receptor (unknown origin) expressed in CHO cells assessed as calcium mobilization at 3 uM; format: functional, cell-based
[5] = target: Beta-2 adrenergic receptor (Homo sapiens) (UniProt P07550); assay: Agonist activity at adrenergic beta2 receptor (unknown origin) expressed in CHO cells assessed as calcium mobilization at 3 uM; format: functional, cell-based
[6] = target: Alpha-1A adrenergic receptor (Homo sapiens) (UniProt P35348); assay: Binding affinity to adrenergic alpha1A receptor (unknown origin) at 3 uM by radioligand-binding assay
[7] = target: 5-hydroxytryptamine receptor 2B (Homo sapiens) (UniProt P41595); assay: Antagonist activity at 5-HT2B receptor (unknown origin) expressed in CHO cells assessed as calcium mobilization at 3 uM; format: functional, cell-based
[8] = target: Cytochrome P450 3A4 (Homo sapiens, UniProt P08684); assay: Inhibition of CYP3A4 (unknown origin); format: ADME
[9] = target: T1, Adrenergic receptor alpha-1 (Homo sapiens) (UniProt P35348+P25100+P35368); assay: Antagonist activity at adrenergic a1 receptor (unknown origin) expressed in CHO cells assessed as calcium mobilization at 3 uM; format: functional, cell-based
[10] = system: P-glycoprotein; assay: Binding affinity to p-glycoprotein (unknown origin) assessed as efflux ratio by cell based assay; format: ADME; settings: human, not told
[11] = target: Aryl hydrocarbon receptor (Homo sapiens, UniProt P35869); assay: Induction of human AhR
[12] = target: 5-hydroxytryptamine receptor 1F (Homo sapiens) (UniProt P30939); assay: Agonist activity at 5-HT1F receptor (unknown origin) expressed in CHO cells assessed as calcium mobilization at 3 uM; format: functional, cell-based
[13] = target: 5-hydroxytryptamine receptor 6 (Homo sapiens) (UniProt P50406); assay: Antagonist activity at 5-HT6 receptor (unknown origin) expressed in CHO cells assessed as calcium mobilization at 3 uM; format: functional, cell-based
[14] = target: Kappa-type opioid receptor (Homo sapiens) (UniProt P41145); assay: Agonist activity at ppiate kappa receptor (unknown origin) expressed in CHO cells assessed as calcium mobilization at 3 uM; format: functional, cell-based
[15] = Ratio of drug level in brain to blood in rat; format: ADME, tissue-based
[16] = target: 5-hydroxytryptamine receptor 1A (Homo sapiens) (UniProt P08908); assay: Antagonist activity at 5-HT1a receptor (unknown origin) expressed in CHO cells assessed as calcium mobilization at 3 uM; format: functional, cell-based
[17] = target: Alpha-2C adrenergic receptor (Homo sapiens) (UniProt P18825); assay: Antagonist activity at adrenergic a2C receptor (unknown origin) expressed in CHO cells assessed as calcium mobilization at 3 uM; format: functional, cell-based
[18] = target: Alpha-2A adrenergic receptor (Homo sapiens) (UniProt P08913); assay: Agonist activity at adrenergic a2a receptor (unknown origin) expressed in CHO cells assessed as calcium mobilization at 3 uM; format: functional, cell-based
[19] = target: 5-hydroxytryptamine receptor 2A (Homo sapiens) (UniProt P28223); assay: Agonist activity at 5-HT2a receptor (unknown origin) expressed in CHO cells assessed as calcium mobilization at 3 uM; format: functional, cell-based
[20] = target: Histamine H3 receptor (Homo sapiens) (UniProt Q9Y5N1); assay: Antagonist activity at histamine H3 receptor (unknown origin) expressed in CHO cells assessed as calcium mobilization at 3 uM; format: functional, cell-based
[21] = target: Delta-type opioid receptor (Homo sapiens) (UniProt P41143); assay: Antagonist activity at opiate delta1 receptor (unknown origin) expressed in CHO cells assessed as calcium mobilization at 3 uM; format: functional, cell-based
[22] = target: Cysteinyl leukotriene receptor 2 (Homo sapiens) (UniProt Q9NS75); assay: Agonist activity at CysLT2 receptor (unknown origin) expressed in CHO cells assessed as calcium mobilization at 3 uM; format: functional, cell-based
[23] = target: D(4) dopamine receptor (Homo sapiens) (UniProt P21917); assay: Agonist activity at dopamine D4 receptor (unknown origin) expressed in CHO cells assessed as calcium mobilization at 3 uM; format: functional, cell-based
[24] = target: T2, Muscarinic acetylcholine receptor M4 (Homo sapiens) (UniProt P08173); assay: Partial agonist activity at human muscarinic M4 acetylcholine receptor expressed in CHO cells co-expressing Galpha16 assessed as calcium mobilization at 30 uM by FLIPR assay; format: functional, cell-based
T2 sequence (whole entry): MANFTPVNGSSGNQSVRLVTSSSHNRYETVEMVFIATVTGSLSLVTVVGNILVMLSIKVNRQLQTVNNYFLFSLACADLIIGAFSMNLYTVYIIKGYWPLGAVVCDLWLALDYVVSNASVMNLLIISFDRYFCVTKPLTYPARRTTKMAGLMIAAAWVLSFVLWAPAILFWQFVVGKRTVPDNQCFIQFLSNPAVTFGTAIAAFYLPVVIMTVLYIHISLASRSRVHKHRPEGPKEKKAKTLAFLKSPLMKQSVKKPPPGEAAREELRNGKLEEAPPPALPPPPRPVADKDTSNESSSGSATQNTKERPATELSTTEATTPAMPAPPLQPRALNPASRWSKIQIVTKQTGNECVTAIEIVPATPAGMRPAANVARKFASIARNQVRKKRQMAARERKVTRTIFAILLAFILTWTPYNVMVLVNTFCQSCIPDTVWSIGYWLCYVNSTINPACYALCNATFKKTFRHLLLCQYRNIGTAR

[25] = target: T1, Adrenergic receptor alpha-1 (Homo sapiens); assay: Agonist activity at adrenergic a1 receptor (unknown origin) expressed in CHO cells assessed as calcium mobilization at 3 uM; format: functional, cell-based
[26] = target: Adenosine receptor A2b (Homo sapiens) (UniProt P29275); assay: Agonist activity at adenosine a2B receptor (unknown origin) expressed in CHO cells assessed as calcium mobilization at 3 uM
[27] = target: Adenosine receptor A3 (Homo sapiens) (UniProt P0DMS8); assay: Agonist activity at adenosine a3 receptor (unknown origin) expressed in CHO cells assessed as calcium mobilization at 3 uM; format: functional, cell-based
[28] = target: 5-hydroxytryptamine receptor 1B (Homo sapiens) (UniProt P28222); assay: Antagonist activity at 5-HT1B receptor (unknown origin) expressed in CHO cells assessed as calcium mobilization at 3 uM; format: functional, cell-based
[29] = target: D(1B) dopamine receptor (Homo sapiens) (UniProt P21918); assay: Agonist activity at dopamine D5 receptor (unknown origin) expressed in CHO cells assessed as calcium mobilization at 3 uM; format: functional, cell-based
[30] = target: D(4) dopamine receptor (Homo sapiens) (UniProt P21917); assay: Antagonist activity at dopamine D4 receptor (unknown origin) expressed in CHO cells assessed as calcium mobilization at 3 uM; format: functional, cell-based
[31] = target: Cysteinyl leukotriene receptor 1 (Homo sapiens) (UniProt Q9Y271); assay: Agonist activity at CysLT1 receptor (unknown origin) expressed in CHO cells assessed as calcium mobilization at 3 uM; format: functional, cell-based
[32] = target: D(2) dopamine receptor (Homo sapiens) (UniProt P14416); assay: Antagonist activity at dopamine D2L receptor (unknown origin) expressed in CHO cells assessed as calcium mobilization at 3 uM; format: functional, cell-based

Sequence of 5-hydroxytryptamine receptor 1F (Homo sapiens) (P30939 whole entry): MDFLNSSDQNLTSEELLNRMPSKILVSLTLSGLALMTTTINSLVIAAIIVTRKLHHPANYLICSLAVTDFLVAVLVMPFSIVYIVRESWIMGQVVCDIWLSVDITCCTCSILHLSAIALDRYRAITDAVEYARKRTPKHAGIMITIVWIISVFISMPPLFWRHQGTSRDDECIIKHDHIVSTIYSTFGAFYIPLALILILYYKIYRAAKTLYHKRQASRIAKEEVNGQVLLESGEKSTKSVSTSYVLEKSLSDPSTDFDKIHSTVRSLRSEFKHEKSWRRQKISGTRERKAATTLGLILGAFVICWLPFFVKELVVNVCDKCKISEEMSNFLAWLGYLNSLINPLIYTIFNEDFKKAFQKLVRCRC
Sequence of Beta-2 adrenergic receptor (Homo sapiens) (P07550 whole entry, looked up): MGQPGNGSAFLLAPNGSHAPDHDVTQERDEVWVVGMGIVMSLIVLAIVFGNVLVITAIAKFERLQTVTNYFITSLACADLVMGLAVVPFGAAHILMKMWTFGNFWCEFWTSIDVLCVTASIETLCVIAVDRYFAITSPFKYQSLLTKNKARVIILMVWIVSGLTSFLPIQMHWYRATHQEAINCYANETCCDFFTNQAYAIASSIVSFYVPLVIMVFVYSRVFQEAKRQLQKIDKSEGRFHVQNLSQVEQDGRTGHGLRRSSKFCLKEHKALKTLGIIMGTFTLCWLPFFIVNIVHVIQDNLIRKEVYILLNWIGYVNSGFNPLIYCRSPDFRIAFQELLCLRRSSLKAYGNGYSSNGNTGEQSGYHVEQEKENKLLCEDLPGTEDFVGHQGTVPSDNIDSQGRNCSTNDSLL
Sequence of D(4) dopamine receptor (Homo sapiens) (P21917 whole entry): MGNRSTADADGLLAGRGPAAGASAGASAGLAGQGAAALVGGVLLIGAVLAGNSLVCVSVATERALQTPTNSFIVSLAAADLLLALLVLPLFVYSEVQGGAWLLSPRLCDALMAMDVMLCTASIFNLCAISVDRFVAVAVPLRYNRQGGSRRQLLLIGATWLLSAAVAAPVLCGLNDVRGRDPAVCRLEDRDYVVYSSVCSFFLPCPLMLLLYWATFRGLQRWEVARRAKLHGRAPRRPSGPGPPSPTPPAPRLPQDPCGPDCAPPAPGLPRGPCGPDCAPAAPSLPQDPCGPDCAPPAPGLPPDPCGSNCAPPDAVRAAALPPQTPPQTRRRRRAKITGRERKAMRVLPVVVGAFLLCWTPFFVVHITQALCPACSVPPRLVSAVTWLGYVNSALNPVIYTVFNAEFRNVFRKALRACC
Sequence of 5-hydroxytryptamine receptor 2A (Homo sapiens) (P28223 whole entry): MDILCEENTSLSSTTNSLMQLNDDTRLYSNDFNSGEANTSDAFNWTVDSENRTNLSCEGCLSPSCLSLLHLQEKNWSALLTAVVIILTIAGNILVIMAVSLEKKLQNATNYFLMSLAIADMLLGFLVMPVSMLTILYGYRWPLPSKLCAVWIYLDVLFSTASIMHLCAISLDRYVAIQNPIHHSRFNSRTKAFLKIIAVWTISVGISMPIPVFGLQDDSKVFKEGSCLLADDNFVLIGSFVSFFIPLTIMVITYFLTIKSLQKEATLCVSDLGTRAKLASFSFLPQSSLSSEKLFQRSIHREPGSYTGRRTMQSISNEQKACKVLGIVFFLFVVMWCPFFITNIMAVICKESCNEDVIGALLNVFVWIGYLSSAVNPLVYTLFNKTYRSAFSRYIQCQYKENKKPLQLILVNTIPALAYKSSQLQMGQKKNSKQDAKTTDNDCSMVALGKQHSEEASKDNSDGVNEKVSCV
Sequence of 5-hydroxytryptamine receptor 1B (Homo sapiens) (P28222 whole entry): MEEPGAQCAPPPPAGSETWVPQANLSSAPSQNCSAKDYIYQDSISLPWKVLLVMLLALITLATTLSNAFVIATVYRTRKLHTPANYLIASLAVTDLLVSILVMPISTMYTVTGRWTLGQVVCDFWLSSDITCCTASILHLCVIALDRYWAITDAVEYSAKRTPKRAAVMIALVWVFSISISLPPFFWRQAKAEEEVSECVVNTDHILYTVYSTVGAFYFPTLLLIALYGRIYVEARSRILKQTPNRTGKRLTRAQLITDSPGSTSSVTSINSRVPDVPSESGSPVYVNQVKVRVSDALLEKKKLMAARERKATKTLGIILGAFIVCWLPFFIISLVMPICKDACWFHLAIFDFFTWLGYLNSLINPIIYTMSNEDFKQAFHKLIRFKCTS
Sequence of 5-hydroxytryptamine receptor 2C (Homo sapiens) (P28335 whole entry): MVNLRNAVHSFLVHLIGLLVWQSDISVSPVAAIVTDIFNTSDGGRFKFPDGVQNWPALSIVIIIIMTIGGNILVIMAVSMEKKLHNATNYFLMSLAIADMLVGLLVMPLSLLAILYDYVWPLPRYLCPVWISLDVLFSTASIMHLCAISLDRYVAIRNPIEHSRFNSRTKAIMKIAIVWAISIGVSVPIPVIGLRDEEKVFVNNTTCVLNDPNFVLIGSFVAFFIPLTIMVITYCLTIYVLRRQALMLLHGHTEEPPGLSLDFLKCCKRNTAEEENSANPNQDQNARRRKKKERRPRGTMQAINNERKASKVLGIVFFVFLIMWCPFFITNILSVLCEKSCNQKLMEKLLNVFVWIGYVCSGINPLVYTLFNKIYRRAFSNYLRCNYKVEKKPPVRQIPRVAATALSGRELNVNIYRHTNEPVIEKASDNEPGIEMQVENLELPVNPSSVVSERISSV
Sequence of 5-hydroxytryptamine receptor 2B (Homo sapiens) (P41595 whole entry): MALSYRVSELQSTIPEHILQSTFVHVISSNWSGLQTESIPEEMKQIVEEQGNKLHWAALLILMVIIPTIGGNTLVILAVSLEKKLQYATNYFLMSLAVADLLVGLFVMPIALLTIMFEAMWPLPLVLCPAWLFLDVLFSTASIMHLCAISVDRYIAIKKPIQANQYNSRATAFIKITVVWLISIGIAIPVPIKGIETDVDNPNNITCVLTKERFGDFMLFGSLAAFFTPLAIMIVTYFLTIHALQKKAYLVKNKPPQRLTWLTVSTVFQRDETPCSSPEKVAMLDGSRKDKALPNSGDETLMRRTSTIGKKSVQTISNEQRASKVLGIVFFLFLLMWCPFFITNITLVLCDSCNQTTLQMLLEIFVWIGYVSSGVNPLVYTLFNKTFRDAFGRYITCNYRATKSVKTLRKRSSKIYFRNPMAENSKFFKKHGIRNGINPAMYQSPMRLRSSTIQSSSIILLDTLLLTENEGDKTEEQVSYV
Sequence of Aryl hydrocarbon receptor (P35869 whole entry): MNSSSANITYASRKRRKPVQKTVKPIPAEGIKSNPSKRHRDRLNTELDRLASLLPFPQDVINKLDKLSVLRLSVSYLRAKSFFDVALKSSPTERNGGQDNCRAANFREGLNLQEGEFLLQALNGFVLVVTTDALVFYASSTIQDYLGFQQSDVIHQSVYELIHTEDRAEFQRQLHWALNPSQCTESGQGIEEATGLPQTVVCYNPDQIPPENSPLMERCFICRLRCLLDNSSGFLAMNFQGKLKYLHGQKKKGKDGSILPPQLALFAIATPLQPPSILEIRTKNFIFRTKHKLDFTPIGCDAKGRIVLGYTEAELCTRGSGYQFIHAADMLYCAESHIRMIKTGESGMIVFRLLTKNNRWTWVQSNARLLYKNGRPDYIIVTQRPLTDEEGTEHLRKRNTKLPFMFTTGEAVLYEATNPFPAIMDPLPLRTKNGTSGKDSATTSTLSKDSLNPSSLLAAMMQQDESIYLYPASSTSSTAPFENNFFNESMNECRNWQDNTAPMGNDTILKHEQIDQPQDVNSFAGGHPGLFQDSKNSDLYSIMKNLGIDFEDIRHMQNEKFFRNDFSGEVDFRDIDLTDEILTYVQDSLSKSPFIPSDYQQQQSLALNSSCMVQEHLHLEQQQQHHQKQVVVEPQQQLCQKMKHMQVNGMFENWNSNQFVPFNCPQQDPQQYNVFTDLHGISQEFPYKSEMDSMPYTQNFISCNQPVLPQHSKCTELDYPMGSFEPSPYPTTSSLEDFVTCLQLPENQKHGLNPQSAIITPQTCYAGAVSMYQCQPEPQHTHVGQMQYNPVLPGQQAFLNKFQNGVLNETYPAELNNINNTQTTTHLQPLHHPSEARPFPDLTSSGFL
Sequence of 5-hydroxytryptamine receptor 1A (Homo sapiens) (P08908 whole entry): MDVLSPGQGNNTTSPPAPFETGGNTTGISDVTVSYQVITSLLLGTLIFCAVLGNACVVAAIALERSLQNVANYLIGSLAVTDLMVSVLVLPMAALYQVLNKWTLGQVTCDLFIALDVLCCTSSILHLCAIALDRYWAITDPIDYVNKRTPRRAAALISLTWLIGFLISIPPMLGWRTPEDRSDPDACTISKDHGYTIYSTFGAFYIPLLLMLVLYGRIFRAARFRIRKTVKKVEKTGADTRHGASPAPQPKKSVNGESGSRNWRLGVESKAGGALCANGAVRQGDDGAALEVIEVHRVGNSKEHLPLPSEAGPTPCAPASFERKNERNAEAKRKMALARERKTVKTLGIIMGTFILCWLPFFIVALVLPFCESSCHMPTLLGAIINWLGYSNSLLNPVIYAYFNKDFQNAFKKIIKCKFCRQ
Sequence of Cysteinyl leukotriene receptor 2 (Homo sapiens) (Q9NS75 whole entry): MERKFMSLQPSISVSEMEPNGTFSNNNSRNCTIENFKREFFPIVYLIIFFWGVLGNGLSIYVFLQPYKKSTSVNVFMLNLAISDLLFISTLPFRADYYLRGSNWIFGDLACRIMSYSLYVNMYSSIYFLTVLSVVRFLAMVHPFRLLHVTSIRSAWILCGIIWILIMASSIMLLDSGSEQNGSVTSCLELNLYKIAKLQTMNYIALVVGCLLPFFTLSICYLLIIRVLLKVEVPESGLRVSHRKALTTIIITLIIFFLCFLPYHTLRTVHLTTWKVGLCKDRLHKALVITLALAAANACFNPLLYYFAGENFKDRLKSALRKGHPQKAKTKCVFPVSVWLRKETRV
Sequence of Cysteinyl leukotriene receptor 1 (Homo sapiens) (Q9Y271 whole entry): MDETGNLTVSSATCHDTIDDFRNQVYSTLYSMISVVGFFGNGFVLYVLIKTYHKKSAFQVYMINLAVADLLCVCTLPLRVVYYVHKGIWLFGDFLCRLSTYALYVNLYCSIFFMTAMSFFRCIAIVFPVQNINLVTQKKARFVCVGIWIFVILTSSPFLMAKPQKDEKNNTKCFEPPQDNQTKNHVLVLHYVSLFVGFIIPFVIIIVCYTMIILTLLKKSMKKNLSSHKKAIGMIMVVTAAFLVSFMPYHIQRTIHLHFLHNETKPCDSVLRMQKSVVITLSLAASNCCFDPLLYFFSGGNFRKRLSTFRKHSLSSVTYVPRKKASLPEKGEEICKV

SMILES: CCOC(=O)N1[C@@H]2CC[C@H]1C[C@H](CN1CC[C@@H](N3Cc4ccccc4NC3=O)C1)C2
- inhibition [1]: 0.18%
- Activity [2]: 0.22%
- inhibition [3]: 1.04%
- Activity [4]: 0.82%
- Activity [5]: -0.21%
- inhibition [6]: 6%
- inhibition [7]: 6.13%
- IC50 [8]: > 2000 nM
- inhibition [9]: 5.57%
- efflux ratio [10]: 1
- Activity [11]: Not Active
- Activity [12]: -0.53%
- inhibition [13]: 1.97%
- Activity [14]: -0.33%
- Kp [15]: 2.42
- inhibition [16]: -3.46%
- inhibition [17]: 6.45%
- Activity [18]: -0.95%
- Activity [19]: 0.07%
- inhibition [20]: 13.7%
- inhibition [21]: 20.9%
- Activity [22]: 0.03%
- Activity [23]: -0.14%
- Activity [24]: 51%
- Activity [25]: -0.04%
- Activity [26]: -0.01%
- Activity [27]: 1.07%
- inhibition [28]: 10.5%
- Activity [29]: 0.08%
- inhibition [30]: 11.6%
- Activity [31]: 0.45%
- inhibition [32]: 13.2%
